Results on nine compounds are retold here after PubChem BioAssay (NCI).

Structures are written as SMILES.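 Dose response: 5 concentrations. Exposure: 48 h. Format: 96-well plates. Endpoint: linear interpolation; highest concentration if not reached. Here, GI50 denotes the concentration required for 50% inhibition of growth. TGI: total growth inhibition.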

What all share (assay): growth of human tumour cells (NCI), 48 h
Test [1] concerns KM12 colon.
Test [2] concerns NCI-H522 lung.
Test [3] relates to M14 melanoma.
In test [4] the test system is OVCAR-4 ovarian.
In test [5] the test system is HOP-62 NSCLC.
Test [6] has as its system COLO 205 colon.
The test system of test [7] is SK-MEL-2 melanoma.
For test [8], the system named is HT29 colon.
In test [9] the test system is TK-10 renal.
Test [10] concerns NCI-H226 lung.

On to `CN1CCN(C(=O)OCc2nc3c(N4CCOCC4)nc(-c4ccccc4)nc3n2C)CC1`, for which the GI50 in test [1] was 1.55 µM; in test [2] it was 0.596 µM; in [3] it was 1.07 µM; in [4], 1.2 µM; in [5], 1.53 µM; in [6], 1.36 µM. Besides, the GI50 in test [7] was 1.85 µM; in test [8], 0.512 µM; in test [9], 1.67 µM; in test [10], 1.61 µM. In addition, the TGI came to 3.53 µM in [1]; 2.4 µM in test [2]; 2.44 µM in test [3]; 2.65 µM in test [4]; 3.79 µM in test [5]; 3.75 µM in test [6]. Further, the TGI came out at 3.69 µM in test [7], 2.24 µM in [8], 3.12 µM in test [9] and 3.78 µM in test [10].

Turning to `O=C1/C(=C\c2ccc(Cl)cc2)CN(C(=O)c2ccccc2)C/C1=C\c1ccc(Cl)cc1`, the GI50 in test [1] was 1.2 µM; in test [2] it was 3.22 µM; in test [3], 2.63 µM; in [4], 2.54 µM; in [5], 2.45 µM; in [6] it was 3.45 µM. For the same compound, the GI50 in [7] is 16.8 µM; in [8], 1.66 µM; in test [9], 3.59 µM. For the same compound, the TGI stood at 3.18 µM in test [1]; 10.8 µM in test [2]; 7.39 µM in test [3]; 19.4 µM in test [4]; 6.41 µM in [5]; 10.5 µM in test [6]. In addition, the TGI is 71.2 µM in test [7], 5 µM in test [8], 14.1 µM in test [9] and more than 20.1 µM in test [10].

Consider `O=P1(O)c2ccccc2CSCc2ccccc21`, for which the TGI in test [1], in [2], in test [3], in [4], in [5] and in test [6] was more than 100 µM in each case. The TGI in test [7], in test [8], in test [9] and in test [10] was more than 100 µM throughout.

Consider `N#C/C(=C\c1ccc([N+](=O)[O-])cc1)n1nnc2cc(F)c(F)cc21`, for which the GI50 in test [1] is 2.02 µM; in [2] it was 1.66 µM; in test [3], 1.83 µM; in test [4] it was 1.46 µM; in test [5], 1.78 µM; in test [6], 1.89 µM. Also, the GI50 is 2.32 µM in test [7], 1.87 µM in test [8], 1.89 µM in test [9] and 1.97 µM in [10]. Moreover, the TGI in test [1] is 4.39 µM; in test [2] it was 3.79 µM; in test [3], 3.74 µM; in test [4], 2.86 µM; in test [5], 4.11 µM; in [6], 3.93 µM. The TGI in [7] came to 5.58 µM; in test [8], 3.64 µM; in [9], 3.33 µM; in test [10] it was 5.73 µM.

Turning to `COc1ccc(/C=C/C(=O)c2ccc(B(O)O)cc2)cc1O`, the GI50 was 3.96 µM in test [1]; 17.8 µM in [2]; 8.03 µM in test [3]; 16.7 µM in test [4]; 18.5 µM in test [5]; 16.2 µM in test [6]. Also, the GI50 in test [7] was 26.1 µM; in test [8], 8.22 µM; in test [9] it was 30.4 µM; in [10], 28.2 µM. In addition, the TGI is 15 µM in test [1]; 45.1 µM in [2]; 29.6 µM in test [3]; 40.3 µM in test [4]; more than 57.2 µM in test [5]; 32 µM in test [6]. Besides, the TGI is 64.9 µM in [7], more than 60.4 µM in test [8], more than 67.6 µM in test [9] and 97.1 µM in test [10].

With `CC(=O)OC1C(COC(N)=O)OC(n2c(-c3ccc(C)cc3)cc(-c3ccccc3)c(C#N)c2=O)C(OC(C)=O)C1OC(C)=O` (centres undefined), the TGI in test [1], in [2], in test [3], in test [4], in test [5] and in test [6] was more than 100 µM in each case. Moreover, the TGI in test [7], in test [8], in [9] and in test [10] was more than 100 µM in each case.

Take `O=C(O)c1cc(C(=O)C(=O)c2cc(C(=O)O)c(O)c3ccccc23)c2ccccc2c1O`: the TGI in test [1], in test [2], in [3], in [4], in test [5] and in test [6] was more than 100 µM throughout. For the same compound, the TGI in test [7], in test [8], in [9] and in test [10] was more than 100 µM in each case.

As to `O=C(NCCNc1nccc(-c2c(-c3ccc(F)cc3)nc3sccn23)n1)Nc1cccc(C(F)(F)F)c1`, the GI50 is 6.43 µM in [1]; 12.2 µM in test [2]; 8.73 µM in test [3]; 4.74 µM in [4]; 2.9 µM in test [5]; 2.57 µM in [6]. Also, the GI50 in test [7] was 3.02 µM; in test [8], 6.44 µM; in test [9] it was 10.5 µM; in test [10] it was 2.38 µM. Moreover, the TGI was found to be 23.9 µM in test [1]; 26 µM in test [2]; 21.8 µM in test [3]; 43 µM in test [4]; 10.1 µM in test [5]; 7.73 µM in test [6]. Besides, the TGI came to 8.8 µM in [7], 28 µM in test [8], 36.2 µM in [9] and 10.6 µM in [10].

Consider `Nc1nc(N)c2cc(Sc3ccc(Cl)cc3)ccc2n1`, for which the GI50 in test [1] was 1.34 µM; in test [2] it was 1.35 µM; in test [3] it was 0.535 µM; in test [4], 3.91 µM; in test [5], 1.49 µM; in test [6], 1.28 µM. Moreover, the GI50 was 2.23 µM in [7], 0.516 µM in test [8], 4.91 µM in test [9] and 9.71 µM in test [10]. Further, the TGI in [1] was 4.32 µM; in [2], 3.87 µM; in test [3] it was 1.98 µM; in test [4], 18.9 µM; in test [5] it was 14.9 µM; in [6], 2.83 µM. Also, the TGI amounted to 5.53 µM in test [7], 2.4 µM in [8], 17.2 µM in test [9] and 23.4 µM in test [10].
